Measurements reported in ChEMBL document CHEMBL5241114, “A comprehensive review of BET-targeting PROTACs for cancer therapy” (Bioorg Med Chem, 2022).
pIC50: −log10 of the molar value. Each block holds one compound with its values, some of them ahead of it.

What was measured:
SUD4 = experiment: Antiproliferative activity against human SU-DHL-4 cells assessed as reduction in cell viability measured after 48 hrs by MTT assay; format: functional
[1] = molecular target: T1, Bromodomain-containing protein 4 (Homo sapiens, UniProt O60885); experiment: Induction of BRD4 degradation in human HCT-116 cells assessed as downregulation of c-Myc expression; format: cell-based
MDA-MB-468 = experiment: Antiproliferative activity against human MDA-MB-468 cells assessed as cell growth inhibition; format: functional
MDA-MB-231 = experiment: Antiproliferative activity against human MDA-MB-231 cells assessed as cell growth inhibition; format: functional
[2] = molecular target: T1, Bromodomain-containing protein 4; experiment: Induction of BRD4 degradation in human MDA-MB-468 cells at 0.5 uM measured at 48 hrs relative to control; format: cell-based
[3] = molecular target: T1, Bromodomain-containing protein 4; experiment: Induction of BRD4 degradation in human MV4-11 cells measured after 12 hrs; format: cell-based
[4] = molecular target: T1, Bromodomain-containing protein 4; experiment: Induction of BRD4 degradation in human HD-MB03 cells measured after 12 hrs; format: cell-based
[5] = molecular target: T1, Bromodomain-containing protein 4; experiment: Induction of BRD4 degradation in human MV4-11 cells measured after 24 hrs; format: cell-based
[6] = molecular target: T1, Bromodomain-containing protein 4; experiment: Induction of BRD4 degradation in human HD-MB03 cells at 100 nM measured at 72 hrs relative to control; format: cell-based
MV4-11 [7] = experiment: Cytotoxicity against human MV4-11 cells; format: functional, cell-based
MV4-11 [8] = experiment: Cytotoxicity against human MV4-11 cells measured after 96 hrs; format: functional, cell-based; details: MV4-11, 96 h
[9] = molecular target: T1, Bromodomain-containing protein 4; experiment: Induction of BRD4 degradation in human HEK293T cells; format: cell-based
[10] = molecular target: T1, Bromodomain-containing protein 4; experiment: Induction of BRD4 degradation in human 231MFP cells; format: cell-based; details: 231mfp
[11] = molecular target: T1, Bromodomain-containing protein 4; experiment: Induction of BRD4 degradation in human HAP1 cells; format: cell-based
[12] = molecular target: T1, Bromodomain-containing protein 4; experiment: Induction of BRD4 degradation in human HEK293T cells at 10 uM measured at 6 hrs relative to control; format: cell-based
[13] = molecular target: T1, Bromodomain-containing protein 4; experiment: Induction of BRD4 degradation in human SU-DHL-4 measured after 72 hrs; format: cell-based
[14] = molecular target: T1, Bromodomain-containing protein 4; experiment: Induction of BRD4 degradation in human SU-DHL-4 measured after 72 hrs relative to control; format: cell-based
[15] = molecular target: Folliculin-interacting protein 1 (Homo sapiens, UniProt Q8TF40); experiment: Inhibition of FNIP1 in human HEK293T cells; format: cell-based
[16] = molecular target: Protein fem-1 homolog B/Folliculin-interacting protein 1 (Homo sapiens, UniProt Q8TF40+Q9UK73); experiment: Inhibition of FEMIB/FNIP1 interaction in human HEK293T cells; format: cell-based
Protein fem-1 homolog B/Folliculin-interacting protein 1, sequence (Q8TF40 whole entry): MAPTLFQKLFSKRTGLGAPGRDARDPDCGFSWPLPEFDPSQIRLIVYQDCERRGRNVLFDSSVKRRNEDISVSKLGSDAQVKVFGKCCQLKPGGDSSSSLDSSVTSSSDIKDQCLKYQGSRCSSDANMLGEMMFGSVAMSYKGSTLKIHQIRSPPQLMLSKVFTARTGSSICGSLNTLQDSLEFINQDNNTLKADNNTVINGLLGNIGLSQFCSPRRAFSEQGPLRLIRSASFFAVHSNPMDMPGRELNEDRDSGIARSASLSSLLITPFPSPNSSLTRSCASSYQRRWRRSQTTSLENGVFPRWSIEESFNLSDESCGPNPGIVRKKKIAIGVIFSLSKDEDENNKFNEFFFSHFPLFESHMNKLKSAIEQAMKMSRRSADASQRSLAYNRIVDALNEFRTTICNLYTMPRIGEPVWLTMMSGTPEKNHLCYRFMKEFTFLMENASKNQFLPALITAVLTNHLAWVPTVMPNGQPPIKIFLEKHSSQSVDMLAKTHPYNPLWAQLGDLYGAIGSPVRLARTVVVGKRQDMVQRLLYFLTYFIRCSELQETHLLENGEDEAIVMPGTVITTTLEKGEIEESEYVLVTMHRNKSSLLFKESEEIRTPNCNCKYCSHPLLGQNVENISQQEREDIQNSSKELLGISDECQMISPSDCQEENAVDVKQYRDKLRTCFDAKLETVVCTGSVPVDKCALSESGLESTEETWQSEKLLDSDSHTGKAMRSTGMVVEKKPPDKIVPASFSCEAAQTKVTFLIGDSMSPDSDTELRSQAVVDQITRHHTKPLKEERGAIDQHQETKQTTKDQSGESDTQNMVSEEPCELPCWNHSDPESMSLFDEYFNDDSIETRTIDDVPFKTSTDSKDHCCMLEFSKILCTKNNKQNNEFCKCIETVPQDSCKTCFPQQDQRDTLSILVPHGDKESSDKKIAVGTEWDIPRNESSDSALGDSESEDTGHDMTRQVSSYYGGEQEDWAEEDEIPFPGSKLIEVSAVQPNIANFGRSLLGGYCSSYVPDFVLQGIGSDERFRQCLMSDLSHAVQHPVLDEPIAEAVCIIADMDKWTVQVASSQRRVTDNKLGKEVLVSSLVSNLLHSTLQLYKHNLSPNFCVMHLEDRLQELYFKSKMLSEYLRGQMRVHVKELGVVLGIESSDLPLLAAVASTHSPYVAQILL
Protein fem-1 homolog B/Folliculin-interacting protein 1, sequence (Q9UK73 whole entry): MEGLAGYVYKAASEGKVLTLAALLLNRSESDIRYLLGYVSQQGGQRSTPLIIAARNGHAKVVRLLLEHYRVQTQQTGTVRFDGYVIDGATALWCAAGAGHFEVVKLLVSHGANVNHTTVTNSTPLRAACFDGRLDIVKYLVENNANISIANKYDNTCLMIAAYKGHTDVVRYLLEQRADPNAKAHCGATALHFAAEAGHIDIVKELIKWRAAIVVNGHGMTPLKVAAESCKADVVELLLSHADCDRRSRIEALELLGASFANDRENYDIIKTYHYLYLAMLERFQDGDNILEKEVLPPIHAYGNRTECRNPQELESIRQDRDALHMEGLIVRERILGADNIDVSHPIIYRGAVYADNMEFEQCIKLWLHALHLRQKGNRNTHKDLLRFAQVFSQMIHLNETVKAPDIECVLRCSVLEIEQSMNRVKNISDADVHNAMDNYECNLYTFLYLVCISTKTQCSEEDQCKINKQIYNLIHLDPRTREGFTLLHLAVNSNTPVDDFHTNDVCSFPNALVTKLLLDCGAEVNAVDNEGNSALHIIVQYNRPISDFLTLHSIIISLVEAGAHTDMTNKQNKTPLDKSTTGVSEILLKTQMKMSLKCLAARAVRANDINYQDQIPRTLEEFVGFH

Folliculin-interacting protein 1, sequence (Q8TF40 whole entry): as the sequence (Q8TF40 whole entry) above

Structure (SMILES): COc1cc(C(=O)NCCOCCOCCOCCNC(=O)C[C@@H]2N=C(c3ccc(Cl)cc3)c3c(sc(C)c3C)-n3c(C)nnc32)ccc1NC(=O)[C@@H]1N[C@@H](CC(C)(C)C)[C@](C#N)(c2ccc(Cl)cc2F)[C@H]1c1cccc(Cl)c1F
GC50 (SUD4): 25170 nM
DC50 [1]: 36 nM

Structure (SMILES): CCOC(=O)C[C@H](c1ccc(C)c(CN2C[C@H](C)Oc3ccccc3S2(=O)=O)c1)c1cc(OCCNC(=O)CNC(=O)C[C@H]2N=C(c3ccc(Cl)cc3)c3c(sc(C)c3C)-n3c(C)nnc32)c2c(c1)nnn2C
GI50 (MDA-MB-468): 280 nM
GI50 (MDA-MB-231): 130 nM
Emax [2]: 80%

Structure (SMILES): Cc1sc2c(c1C)C(c1ccc(Cl)cc1)=N[C@@H](CC(=O)NCCCCCNC(=O)COc1ccc(C3CCC(=O)NC3=O)cc1)c1nnc(C)n1-2 (stereo not given in full)
DC50 [3]: 0.87 nM
DC50 [4]: 24 nM
DC50 [5]: 0.16 nM
Emax [6]: 87%
pIC50 (MV4-11 [7]): 8.74
pIC50 (MV4-11 [8]): 11.52

Structure (SMILES): Cc1sc2c(c1C)C(c1ccc(Cl)cc1)=N[C@@H](CC(=O)NCCOCCOCCNC(=O)c1cccc(S(=O)(=O)Nc3ccc(C)c4c(C#N)c[nH]c34)c1)c1nnc(C)n1-2
GC50 (SUD4): 4640 nM
DC50 [13]: 10800 nM
Emax [14]: 98%

Now from value to compound:

DC50 [9]: 250 nM
DC50 [10]: 196 nM
DC50 [11]: 313 nM
Emax [12]: 94%
Structure (SMILES): C#CCCCC(=O)N1CCOc2ccc(N(CCC#N)C(=O)CCl)cc21

pIC50 [15]: 6.17
pIC50 [16]: 5.66
Structure (SMILES): N#CCCN(C(=O)CCl)c1ccc2c(c1)OCCO2
